This is an account of results in patent US20230348424A1, “HETEROCYCLIC COMPOUNDS AND METHODS OF USE” (Schrödinger, Inc., priority 2022, published 2023).

The target in the test is SOS1:KRAS (G12C) interaction (Homo sapiens (Human), UniProt Q07889). The test can be described thus: SOS1 KRas(G12C) FRET Assay. The format is binding. The following applies: 0.5 nM His10-SOS1 (res. 564-1049), 2.5 nM GST-KRAS G12C (res. 1-169), 2 hrs at RT. A digest of the protocol: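 GST-KRAS G12C (res. 1-169) at 2.5 nM and His10-SOS1 (res. 564-1049) at 0.5 nM, final, in PBS with 0.1% BSA, 5 mM MgCl2, 100 mM KF, 5 mM DTT and 0.5% DMSO. After 2 h at RT, FRET read at 665/615 nm and normalized to DMSO and no-SOS1 controls. IC50 by non-linear regression.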
Sequence of SOS1:KRAS (G12C) interaction (Q07889 564-1049, stated change not applied): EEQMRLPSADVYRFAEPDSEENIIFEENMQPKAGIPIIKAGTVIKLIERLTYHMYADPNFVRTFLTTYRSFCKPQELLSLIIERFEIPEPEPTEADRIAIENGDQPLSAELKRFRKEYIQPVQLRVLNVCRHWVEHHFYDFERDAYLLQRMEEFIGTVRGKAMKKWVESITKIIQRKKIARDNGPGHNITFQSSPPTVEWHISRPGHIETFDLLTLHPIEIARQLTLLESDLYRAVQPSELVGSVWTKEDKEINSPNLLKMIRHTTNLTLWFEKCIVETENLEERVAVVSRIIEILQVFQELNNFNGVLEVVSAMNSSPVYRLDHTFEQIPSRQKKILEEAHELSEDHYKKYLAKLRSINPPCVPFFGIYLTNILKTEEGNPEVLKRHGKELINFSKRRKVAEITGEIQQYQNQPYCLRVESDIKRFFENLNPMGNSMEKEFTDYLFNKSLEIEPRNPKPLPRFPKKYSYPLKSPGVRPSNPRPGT
In turn, `C[C@@H](NC(=O)c1cn([C@H]2CCOC(C)(C)C2)c(=O)cc1N[C@H]1[C@@H]2CN(C)C[C@@H]21)c1cccc(C(F)F)c1F` [Example 310, N-((R)-1-(3-(difluoromethyl)-2-fluorophenyl)ethyl)-1-((S)-2,2-dimethyltetrahydro-2H-pyran-4-yl)-4-(((1R,5S,6s)-3-methyl-3-azabicyclo[3.1.0]hexan-6-yl)amino)-6-oxo-1,6-dihydropyridine-3-carboxamide] returned an IC50 of 37.2 nM.
Consider `C[C@@H](NC(=O)c1cn(C23CC(C2)C3)c(=O)cc1N[C@H]1CCN(C)C[C@H]1F)c1cccc(C(F)F)c1F` (single isomer, unassigned) [Example 203], for which 4.6 nM corresponded to half-maximal inhibition (IC50).
The value for `C[C@@H](NC(=O)c1cn(C2(CF)CC2)c(=O)cc1N[C@H]1[C@@H]2CC[C@H]1CN(C)C2)c1cccc(C(F)F)c1F` (single isomer, unassigned) [Example 260] was 12.4 nM; that for `C[C@@H](NC(=O)c1cn([C@@H]2C[C@@H]2C)c(=O)cc1N[C@H]1[C@@H]2CN(C)C[C@@H]21)c1cccc(C(F)F)c1F` (single isomer, unassigned) [Example 274] was 10.6 nM.
Then `C[C@@H](NC(=O)c1cn(C2(C(F)F)CC2)c(=O)cc1N[C@@H]1[C@@H]2CC[C@H]1CN(C)C2)c1cccc(C(F)F)c1F` [Example 294, N-((R)-1-(3-(difluoromethyl)-2-fluorophenyl)ethyl)-1-(1-(difluoromethyl)cyclopropyl)-4-(((1R,5S,8s)-3-(methyl-d3)-3-azabicyclo[3.2.1]octan-8-yl)amino)-6-oxo-1,6-dihydropyridine-3-carboxamide], with 53.4 nM; and `C[C@@H](NC(=O)c1cn(C2(C(F)F)CC2)c(=O)cc1NCC12CC(O)(C1)C2)c1cccc(C(F)F)c1F` [Example 182, (R)-N-(1-(3-(difluoromethyl)-2-fluorophenyl)ethyl)-1-(1-(difluoromethyl)cyclopropyl)-4-(((3-hydroxybicyclo[1.1.1]pentan-1-yl)methyl)amino)-6-oxo-1,6-dihydropyridine-3-carboxamide], with 33.8 nM; and `C[C@@H](NC(=O)c1cn([C@@H]2CCOC(C)(C)C2)c(=O)cc1NC1CCN(C)CC1)c1cccc(C(F)F)c1F` (single isomer, unassigned) [Example 307], with 4.9 nM.
The value for `C[C@@H](NC(=O)c1cn(C2(C(F)F)CC2)c(=O)cc1N[C@]12C[C@H]1CN(C)C2)c1cccc(C(F)F)c1F` [Example 227, N-((R)-1-(3-(difluoromethyl)-2-fluorophenyl)ethyl)-1-(1-(difluoromethyl)cyclopropyl)-4-(((1R,5S)-3-methyl-3-azabicyclo[3.1.0]hexan-1-yl)amino)-6-oxo-1,6-dihydropyridine-3-carboxamide] was 61.9 nM; that for `C[C@@H](NC(=O)c1cn(C2(C(F)F)CC2)c(=O)cc1N[C@@H]1[C@@H]2C[C@H]1CN(C)C2)c1cccc(C(F)F)c1F` (single isomer, unassigned) [Example 250] was 21.7 nM.
Turning to `C[C@@H](NC(=O)c1cn(C2(C(F)F)CC2)c(=O)cc1NC1CCN(C)CC1)c1cccc2c1OCC2(F)F` [Example 53, (R)-N-(1-(3,3-difluoro-2,3-dihydrobenzofuran-7-yl)ethyl)-1-(1-(difluoromethyl)cyclopropyl)-4-((1-methylpiperidin-4-yl)amino)-6-oxo-1,6-dihydropyridine-3-carboxamide], the IC50 worked out at 15.6 nM.
As for `C[C@@H](NC(=O)c1cn([C@]23COC[C@H]2C3)c(=O)cc1NC1CCN(C)CC1)c1cccc(C(F)F)c1F` [Example 285, 1-((1S,SS)-3-oxabicyclo[3.1.0]hexan-1-yl)-N-((R)-1-(3-(difluoromethyl)-2-fluorophenyl)ethyl)-4-((1-methylpiperidin-4-yl)amino)-6-oxo-1,6-dihydropyridine-3-carboxamide], the IC50 came to 4.7 nM.
As for `C[C@@H](NC(=O)c1cn([C@H]2CC2(F)F)c(=O)cc1N[C@H]1[C@@H]2CN(C)C[C@@H]21)c1cccc(C(F)(F)F)c1F` (single isomer, unassigned) [Example 200], the half-maximal inhibitory concentration (IC50) turned out to be 16.7 nM.

In general, IC50 refers to the concentration at which inhibition is half-maximal. A lower IC50 goes with greater potency.
